# Values of other authors in patent US20190346442A1, “IMPROVED HLA EPITOPE PREDICTION” (The Broad Institute, Inc., priority 2016, published 2019).
# Tests used:
# healthy human volunteers = conditions: 8 volunteers, one single s.c. administration, versus 4 subjects receiving placebo; whole blood
# [1] = tested on: ovarian carcinoma patients; conditions: poly-ICLC in combination with NY-ESO-1 peptide vaccine, in addition to Montanide; phase 1
# [2] = tested on: advanced hormone refractory prostate cancer patients; conditions: personalized vaccination combined with a low dose of estramustine
compound,measurement,setting,value
Polyinosinic-Polycytidylic Acid-poly-L-lysine Carboxymethylcellulose [poly-ICLC],differential expression of genes versus placebo,healthy human volunteers,up to 212 genes
same,"patients showing induction of CD4+ and CD8+ T cell, as well as antibody responses to the peptide",[1],> 90%
C[C@]12CC[C@@H]3c4ccc(OC(=O)N(CCCl)CCCl)cc4CC[C@H]3[C@@H]1CC[C@@H]2O [estramustine],patients with >50% decrease in serum prostate specific antigen (PSA),[2],54%
